For two molecules, mutagenic call results are on record in PubChem BioAssay AID1259407 (Chemical Carcinogenesis Research Information System (CCRIS), 2018).

This series relates to CCRIS mutagenicity, Ames/micronucleus/aberration tests. Put plainly: CCRIS mutagenicity studies.

Entries after “also recorded” stand apart in the source; their conditions may differ. Activity calls are given as the source filed them. How the calls were made is not given here.

With `S=c1nc[nH]c2nc[nH]c12`, the mutagenic call (End Point: IN VITRO MICRONUCLEUS, Test System: CHL/IU CELLS, Metabolic Activation: NONE) was “active; positive”; the mutagenic call (End Point: IN VITRO MICRONUCLEUS, Test System: CHO CELLS, Metabolic Activation: RAT, LIVER, S-9, AROCLOR 1254) is “inactive; negative”; the mutagenic call (Test System: AMES SALMONELLA TYPHIMURIUM, Strain/Indicator: TA97, Metabolic Activation: HAMSTER, LIVER, S-9, AROCLOR 1254 (30%), Method: PREINCUBATION) is “inactive; negative”; the mutagenic call (Test System: AMES SALMONELLA TYPHIMURIUM, Strain/Indicator: TA97, Metabolic Activation: NONE, Method: PREINCUBATION) was “inactive; negative”; the mutagenic call (Test System: AMES SALMONELLA TYPHIMURIUM, Strain/Indicator: TA97, Metabolic Activation: NONE, Method: STANDARD PLATE) is “inactive; negative”; the mutagenic call (Test System: AMES SALMONELLA TYPHIMURIUM, Strain/Indicator: TA97, Metabolic Activation: RAT, LIVER, S-9, AROCLOR 1254 (30%), Method: PREINCUBATION) was “inactive; negative”. Besides, the mutagenic call by setting is: (Test System: AMES SALMONELLA TYPHIMURIUM, Strain/Indicator: TA97, Metabolic Activation: RAT, LIVER, S-9, PHENOBARBITAL AND ALPHA-NAPHTHOFLAVONE, Method: STANDARD PLATE) “inactive; negative”; (Test System: AMES SALMONELLA TYPHIMURIUM, Strain/Indicator: TA98, Metabolic Activation: HAMSTER, LIVER, S-9, AROCLOR 1254 (30%), Method: PREINCUBATION) “inactive; negative”; (Test System: AMES SALMONELLA TYPHIMURIUM, Strain/Indicator: TA98, Metabolic Activation: NONE, Method: PREINCUBATION) “inactive; negative”; (Test System: AMES SALMONELLA TYPHIMURIUM, Strain/Indicator: TA98, Metabolic Activation: NONE, Method: SPIRAL ASSAY) “inactive; negative”; (Test System: AMES SALMONELLA TYPHIMURIUM, Strain/Indicator: TA98, Metabolic Activation: NONE, Method: STANDARD PLATE) “inactive; negative”; (Test System: AMES SALMONELLA TYPHIMURIUM, Strain/Indicator: TA98, Metabolic Activation: RAT, LIVER, S-9, AROCLOR 1254 (30%), Method: PREINCUBATION) “inactive; negative”. Moreover, the mutagenic call reads like this: (Test System: AMES SALMONELLA TYPHIMURIUM, Strain/Indicator: TA98, Metabolic Activation: RAT, LIVER, S-9, AROCLOR 1254, Method: SPIRAL ASSAY) “inactive; negative”; (Test System: AMES SALMONELLA TYPHIMURIUM, Strain/Indicator: TA98, Metabolic Activation: RAT, LIVER, S-9, AROCLOR 1254, Method: STANDARD PLATE) “inactive; negative”; (Test System: AMES SALMONELLA TYPHIMURIUM, Strain/Indicator: TA98, Metabolic Activation: RAT, LIVER, S-9, PHENOBARBITAL AND ALPHA-NAPHTHOFLAVONE, Method: STANDARD PLATE) “inactive; negative”; (Test System: AMES SALMONELLA TYPHIMURIUM, Strain/Indicator: TA100, Metabolic Activation: HAMSTER, LIVER, S-9, AROCLOR 1254 (30%), Method: PREINCUBATION) “inactive; negative”; (Test System: AMES SALMONELLA TYPHIMURIUM, Strain/Indicator: TA100, Metabolic Activation: NONE, Method: PREINCUBATION) “inactive; negative”; (Test System: AMES SALMONELLA TYPHIMURIUM, Strain/Indicator: TA100, Metabolic Activation: NONE, Method: SPIRAL ASSAY) “inactive; negative”. For the same molecule, the mutagenic call reads like this: (Test System: AMES SALMONELLA TYPHIMURIUM, Strain/Indicator: TA100, Metabolic Activation: RAT, LIVER, S-9, AROCLOR 1254 (30%), Method: PREINCUBATION) “inactive; negative”; (Test System: AMES SALMONELLA TYPHIMURIUM, Strain/Indicator: TA100, Metabolic Activation: RAT, LIVER, S-9, AROCLOR 1254, Method: SPIRAL ASSAY) “inactive; negative”; (Test System: AMES SALMONELLA TYPHIMURIUM, Strain/Indicator: TA100, Metabolic Activation: RAT, LIVER, S-9, AROCLOR 1254, Method: STANDARD PLATE) “inactive; negative”; (Test System: AMES SALMONELLA TYPHIMURIUM, Strain/Indicator: TA100, Metabolic Activation: RAT, LIVER, S-9, PHENOBARBITAL AND ALPHA-NAPHTHOFLAVONE, Method: STANDARD PLATE) “inactive; negative”; (Test System: AMES SALMONELLA TYPHIMURIUM, Strain/Indicator: TA102, Metabolic Activation: NONE, Method: STANDARD PLATE) “inactive; negative”; (Test System: AMES SALMONELLA TYPHIMURIUM, Strain/Indicator: TA1535, Metabolic Activation: HAMSTER, LIVER, S-9, AROCLOR 1254 (30%), Method: PREINCUBATION) “active; positive”. Besides, the mutagenic call is, setting by setting: (Test System: AMES SALMONELLA TYPHIMURIUM, Strain/Indicator: TA1535, Metabolic Activation: NONE, Method: PREINCUBATION) “active; positive”; (Test System: AMES SALMONELLA TYPHIMURIUM, Strain/Indicator: TA1535, Metabolic Activation: NONE, Method: SPIRAL ASSAY) “active; positive”; (Test System: AMES SALMONELLA TYPHIMURIUM, Strain/Indicator: TA1535, Metabolic Activation: NONE, Method: STANDARD PLATE) “active; positive”; (Test System: AMES SALMONELLA TYPHIMURIUM, Strain/Indicator: TA1535, Metabolic Activation: RAT, LIVER, S-9, AROCLOR 1254 (30%), Method: PREINCUBATION) “active; positive”; (Test System: AMES SALMONELLA TYPHIMURIUM, Strain/Indicator: TA1535, Metabolic Activation: RAT, LIVER, S-9, AROCLOR 1254, Method: SPIRAL ASSAY) “active; positive”; (Test System: AMES SALMONELLA TYPHIMURIUM, Strain/Indicator: TA1535, Metabolic Activation: RAT, LIVER, S-9, AROCLOR 1254, Method: STANDARD PLATE) “active; positive”. The mutagenic call is “active; positive” (Test System: AMES SALMONELLA TYPHIMURIUM, Strain/Indicator: TA1535, Metabolic Activation: RAT, LIVER, S-9, PHENOBARBITAL AND ALPHA-NAPHTHOFLAVONE, Method: STANDARD PLATE); “inactive; negative” (Test System: AMES SALMONELLA TYPHIMURIUM, Strain/Indicator: TA1537, Metabolic Activation: NONE, Method: SPIRAL ASSAY); “inactive; negative” (Test System: AMES SALMONELLA TYPHIMURIUM, Strain/Indicator: TA1537, Metabolic Activation: NONE, Method: STANDARD PLATE); “inactive; negative” (Test System: AMES SALMONELLA TYPHIMURIUM, Strain/Indicator: TA1537, Metabolic Activation: RAT, LIVER, S-9, AROCLOR 1254, Method: SPIRAL ASSAY); “inactive; negative” (Test System: AMES SALMONELLA TYPHIMURIUM, Strain/Indicator: TA1537, Metabolic Activation: RAT, LIVER, S-9, AROCLOR 1254, Method: STANDARD PLATE); “active; positive” (Test System: CHINESE HAMSTER V-79, Strain/Indicator: V-79/6-THIOGUANINE, Metabolic Activation: NONE, Method: SUSPENSION/PLATE). For the same molecule, the mutagenic call is “active; positive” (Test System: CHINESE HAMSTER V-79, Strain/Indicator: V-79/6-THIOGUANINE, Metabolic Activation: RAT, LIVER, HEPATOCYTES, Method: SUSPENSION/PLATE); “inactive; negative” (Test System: E. COLI, Strain/Indicator: WP2 (HCR), Metabolic Activation: NONE, Method: STANDARD PLATE); “inactive; negative” (Test System: UDS RAT HEPATOCYTES, Strain/Indicator: THY INCORP, Metabolic Activation: NONE, Method: AUTORADIOGRAPHY (SERUM-FREE MEDIA)).

Take `Clc1ccc(C(Cl)c2ccccn2)cc1` (stereo unspecified): the mutagenic call reads like this: (End Point: IN VITRO CHROMOSOMAL ABERRATIONS, Test System: CHL CELLS, Metabolic Activation: NONE) “inactive; negative; test chemical precipitated at 0.2 mg/ml; toxic at 0.3 mg/ml (metaphase; also recorded: active; positive (structural changes); 0.30 mg/ml was toxic; metaphase cell division not”; (End Point: IN VITRO CHROMOSOMAL ABERRATIONS, Test System: CHL CELLS, Metabolic Activation: RAT, LIVER, S-9, SODIUM PHENOBARBITAL AND 5,6-BENZOFLAVONE) “active; positive (structural changes); test chemical precipitated at 2 highest of 4 dose”.
